Measurements from US20090081197A1 (Palatin Technologies, Inc., priority 2007, published 2009).
Non-standard residues stand in square brackets, D forms with d. Residues, ends and D or L forms follow the SMILES beside them. *: point of attachment. dPhe(4-Cl) = N[C@H](Cc1ccc(Cl)cc1)C(=O)O; Heptanoyl = CCCCCCC(=O)*; Bn = c1ccc(C*)cc1

Assays:
MC5-R = MC5-R (Homo sapiens, UniProt P33032); assay: Competitive inhibition assay using [I^125]-NDP-α-MSH, hMC5-R membranes; type: binding; design: expressed in transfected cells; settings: for inhibition at 1 µM: 1 μM test compound, read-out: Inhibition at 1 μM (NDP-α-MSH) In Normal System, MC5-R; for Ki: read-out: Ki (nM) (NDP-α-MSH) In Normal System, MC5-R
Method: (§1) The ligand concentration used was 0.4 nM for MC3-R and MC5-R, 0.2 nM for MC4-R and 0.1 nM for B16-F10 (MC1-R) membranes. In certain experiments, hMC1-R was also employed.
(§2) The assay mixture was incubated for 90 minutes at room temperature, then filtered and the membranes washed three times with ice cold buffer. The filter was dried and counted in a gamma counter for remaining radioactivity bound to the membranes. […] Each assay was conducted in triplicate and the actual mean values are described, with results less than 0% reported as 0%.

MC4-R [1] = molecular target: T1, MC4-R (Homo sapiens, UniProt P32245); assay: Competitive inhibition assay using [I^125]-NDP-α-MSH, hMC4-R membranes; type: binding; design: host or cells: TREx-293 (HEK-293 stably expressing Tet repressor); settings: for inhibition at 1 µM: 1 μM test compound, read-out: Inhibition at 1 μM (NDP-α-MSH) In Normal System, MC4-R; for Ki: read-out: Ki (nM) (NDP-α-MSH) In Normal System, MC4-R
Method: as §1, §2

[2] = ICV food intake and body weight change; type: in vivo; settings: rat, 1 nmol, 24 hours
Method: ICV food intake and body weight change. Change in food intake and body weight was evaluated for selected compounds. Rats with indwelling intracerebroventricular cannulas (ICV rats) were obtained from Hilltop Lab Animals, Inc. (Scottdale, Pa.). Animals were individually housed in conventional plexiglass hanging cages and maintained on a controlled 12 hour on/off light cycle. Water and powdered (LabDiet, 5P00 Prolab RMH 3000) or pelleted (Harlan Teklad 2018 18% Protein Rodent Diet) food was provided ad libitum. For 1 week before treatment, 24-hour food intake and body weight change was recorded to assess a baseline for the group during vehicle treatment. The rats were dosed ICV with vehicle or selected compounds (1-3 nmol). The changes in body weight and food intake for the 24 hour period after dosing were determined. The changes in body weight and food intake for the 48 hour and 72 hour periods after dosing were also measured to determine reversal of changes in body weight and food intake effects back to baseline levels.

MC3-R = MC3-R (Homo sapiens, UniProt P41968); assay: Competitive inhibition assay using [I^125]-NDP-α-MSH, hMC3-R membranes; type: binding; design: expressed in transfected cells; settings: for inhibition at 1 µM: 1 μM test compound, read-out: Inhibition at 1 μM (NDP-α-MSH) In Normal System, MC3-R
Method: as §1, §2

MC4-R [3] = molecular target: T1, MC4-R; assay: cAMP agonist stimulation, low receptor density system (0.1 ng/mL doxycycline); settings: 0.1 ng/mL doxycycline, low receptor density hMC4-R system; NDP-α-MSH maximal cAMP = 1.0
MC4-R [4] = molecular target: T1, MC4-R; assay: cAMP functional activity assay in HEK-293 cells, normal system; type: cell-based; design: expressed in transfected cells; host or cells: HEK-293; settings: for intrinsic activity at MC4-R in a normal system: NDP-α-MSH = 1.0; for functional status at MC4-R in cAMP assay: normal system, 1 μM concentration where stated
Method: General method for EC50 determination in functional activity assay. […] Data analysis and EC50 values were determined using nonlinear regression analysis with Prism Graph-Pad software.
Functional status. The agonist/antagonist status with respect to MC1-R, MC-3R, MC4-R and MC5-R of certain compounds of the invention was determined. Antagonistic activity was determined by measuring the inhibition of α-MSH-induced or NDP-α-MSH-induced cAMP levels following exposure to graded doses of compounds as in the preceding descriptions.
Assay for agonist. Evaluation of the molecules to elicit a functional response in HEK-293 cells expressing MC4-R was accomplished by measuring the accumulation of intracellular cAMP following treatment. Confluent HEK-293 cells expressing MC4-R receptors were detached by enzyme free cell suspension buffer. […] The cells were plated in a 96 well plates at a density of 0.5×10^5 cells per well and pre-incubated for 30 minutes. Test compounds (dissolved in dimethylsulfoxide (DMSO) at a concentration range of 0.05-5000 nM) were added in a total assay volume of 200 μL and cells were incubated for 1 hour at 37° C. The concentration of DMSO was always held at 1% in the assay mixture. NDP-α-MSH was used as the reference agonist. […] Data analysis and EC50 values were determined by using nonlinear regression analysis with Prism Graph-Pad software. […] Compounds with a response ratio of less than 0.1 (10%) were evaluated for antagonistic activity.

MC4-R [5] = molecular target: T1, MC4-R; assay: cAMP agonist stimulation, high receptor density system (10 ng/mL doxycycline); settings: for Efficacy/Intrinsic Activity: NDP-α-MSH maximal cAMP = 1.0
MC1-R = molecular target: T2, MC1-R (Mus musculus, UniProt Q01727); assay: Competitive inhibition assay using [I^125]-NDP-α-MSH, B-16 mouse melanoma cell membranes; type: binding; settings: for inhibition at 1 µM: 1 μM test compound, read-out: Inhibition at 1 μM (NDP-α-MSH) In Normal System, MC1-R; for Ki: read-out: Ki (nM) (NDP-α-MSH) In Normal System, MC1-R
T2 construct: B-16 mouse melanoma cells (containing MC1-R); endogenous in cells
Method: as §1, §2

[6] = Penile erection induction in male rats; type: in vivo; settings: rat, IV; for penile erection response: 1 μg/kg
Method: Penile erection induction. The ability of compounds to induce penile erection (PE) in male rats was evaluated with selected compounds. Male Sprague-Dawley rats weighing 200-250 g were kept on a 12 hour on/off light cycle with food and water ad libitum. All behavioral studies were performed between 10 A.M. and 5 P.M. Groups of 4-8 rats were treated with compounds at a variety of doses via intravenous (IV) or intracerebroventricular (ICV) routes. Immediately after treatment, rats were placed into individual polystyrene cages (27 cm long, 16 cm wide, and 25 cm high) for behavioral observation. […] Controls utilized carrier without the test compound. Mean PEs in control groups were 0.17 to 0.5 PEs/rat by IV administration in various experiments and between 1-2 PEs/rat by ICV administration in various experiments, and thus only PEs with statistically relevant increases over the mean PEs in control groups are reported as inducing PEs. A PE response in IV animals greater than the mean PEs in control groups but less than 1.0 PEs/rat, particularly with less than all animals responding, was treated as equivocal, and not necessarily distinguishable from vehicle control. In selected instances, compounds with equivocal results in the IV model were tested for penile response in an ICV model, and compounds without a statistically relevant increase over the mean PEs in ICV control groups were determined to not induce PEs.

[7] = 10 ng/mL doxycycline, high receptor density hMC4-R system

MC5-R, sequence (P33032 whole entry): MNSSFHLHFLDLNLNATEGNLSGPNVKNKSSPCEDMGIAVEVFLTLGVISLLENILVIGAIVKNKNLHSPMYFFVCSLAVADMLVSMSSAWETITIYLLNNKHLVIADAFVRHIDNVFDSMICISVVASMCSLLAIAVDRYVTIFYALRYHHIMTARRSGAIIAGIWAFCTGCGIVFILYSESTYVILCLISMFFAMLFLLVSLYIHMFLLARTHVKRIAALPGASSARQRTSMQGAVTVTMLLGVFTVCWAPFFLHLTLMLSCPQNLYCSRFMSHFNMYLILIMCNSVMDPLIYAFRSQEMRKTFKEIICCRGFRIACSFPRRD
T1 sequence (P32245 whole entry): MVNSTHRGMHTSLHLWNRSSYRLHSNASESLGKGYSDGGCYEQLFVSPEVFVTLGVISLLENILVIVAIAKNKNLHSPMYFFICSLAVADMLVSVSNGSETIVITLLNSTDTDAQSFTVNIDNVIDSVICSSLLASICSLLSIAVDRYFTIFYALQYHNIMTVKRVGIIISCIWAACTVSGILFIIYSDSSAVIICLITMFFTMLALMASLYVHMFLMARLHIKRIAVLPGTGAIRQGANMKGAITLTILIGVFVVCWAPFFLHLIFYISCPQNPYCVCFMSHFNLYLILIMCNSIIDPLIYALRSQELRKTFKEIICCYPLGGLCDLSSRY
MC3-R, sequence (P41968 whole entry): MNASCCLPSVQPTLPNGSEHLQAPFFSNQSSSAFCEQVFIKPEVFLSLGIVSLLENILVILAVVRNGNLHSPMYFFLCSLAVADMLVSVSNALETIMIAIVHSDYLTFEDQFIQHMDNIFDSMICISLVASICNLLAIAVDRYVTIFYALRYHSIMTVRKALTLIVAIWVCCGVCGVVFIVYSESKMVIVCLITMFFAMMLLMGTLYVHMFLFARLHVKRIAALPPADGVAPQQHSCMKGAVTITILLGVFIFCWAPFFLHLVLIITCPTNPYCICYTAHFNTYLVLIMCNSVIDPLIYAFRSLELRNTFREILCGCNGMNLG
T2 sequence (Q01727 whole entry): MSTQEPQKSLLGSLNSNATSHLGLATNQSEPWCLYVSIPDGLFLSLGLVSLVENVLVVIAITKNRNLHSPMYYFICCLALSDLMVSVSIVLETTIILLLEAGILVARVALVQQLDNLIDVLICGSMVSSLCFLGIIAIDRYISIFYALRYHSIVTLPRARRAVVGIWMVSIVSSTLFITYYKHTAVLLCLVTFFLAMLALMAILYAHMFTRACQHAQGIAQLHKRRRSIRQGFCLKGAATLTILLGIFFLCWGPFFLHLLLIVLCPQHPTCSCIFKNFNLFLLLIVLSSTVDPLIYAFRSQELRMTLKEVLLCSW

Compound: NCCCC[C@H]1C(=O)N(CCc2ccc3ccccc3c2)CCN1C(=O)[C@@H](Cc1ccc(Cl)cc1Cl)NC(=O)[C@@H]1CC[C@H](c2ccccc2)N1 [Example 18, (2S,5R)-5-phenyl-pyrrolidine-2-carboxylic acid [(R)-2-[(S)-2-(4-amino-butyl)-4-(2-naphthalen-2-yl-ethyl)-3-oxo-piperazin-1-yl]-1-(2,4-dichloro-benzyl)-2-oxo-ethyl]-amide]
- inhibition at 1 µM (MC5-R): 51%
- Ki (MC5-R): 789 nM
- inhibition at 1 µM (MC4-R [1]): 92%
- Ki (MC4-R [1]): 50 nM
- decrease in body weight [2]: 2%
- decrease in food intake [2]: 31%
- inhibition at 1 µM (MC3-R): 18%
- Efficacy/Intrinsic Activity (MC4-R [3]): None
- intrinsic activity at MC4-R in a normal system (MC4-R [4]; normal receptor density system): 0.2
- functional status at MC4-R in cAMP assay (MC4-R [4]): partial agonist (intrinsic activity between 0.1 (10%) and 0.7 (70%) is classified as a partial agonist)
- EC50 (MC4-R [5]): 281 nM
- Efficacy/Intrinsic Activity (MC4-R [5]; [7]): 0.29
- inhibition at 1 µM (MC1-R): 0%
- Ki (MC1-R): 1370 nM

Compound: CCCCCCC(=O)N[C@H](C(=O)N[C@H](Cc1ccc(Cl)cc1)C(=O)N[C@@H](CCCNC(=N)N)C(=O)N[C@@H](Cc1c[nH]c2ccccc12)C(N)=O)[C@@H](C)OCc1ccccc1 [Example 23, Heptanoyl-Thr(Bzl)-D-Phe(4-Cl)-Arg-Trp-NH2] (Heptanoyl-T(Bn)[dPhe(4-Cl)]RW-NH2)
- Penile Erection IV [6]: No
- penile erection response [6]: no penile erection response
- decrease in body weight [2]: 1%
- decrease in food intake [2]: 18%
- Efficacy/Intrinsic Activity (MC4-R [3]): None
- intrinsic activity at MC4-R in a normal system (MC4-R [4]; normal receptor density system): 0.4
- functional status at MC4-R in cAMP assay (MC4-R [4]): partial agonist (intrinsic activity between 0.1 (10%) and 0.7 (70%) is classified as a partial agonist)
- EC50 (MC4-R [5]): 184 nM
- Efficacy/Intrinsic Activity (MC4-R [5]; [7]): 0.75

Compound: NCCCC[C@H]1C(=O)N(CCc2ccc3ccccc3c2)CCN1C(=O)[C@@H](Cc1ccc(Cl)cc1Cl)NC(=O)c1ccc(Oc2ccccc2)cc1 [Example 21, N—[(R)-2-[(S)-2-(4-Amino-butyl)-4-(2-naphthalen-2-yl-ethyl)-3-oxo-piperazin-1-yl]-1-(2,4-dichloro-benzyl)-2-oxo-ethyl]-4-phenoxy-benzamide]
- inhibition at 1 µM (MC5-R): 51%
- Penile Erection IV [6]: No
- penile erection response [6]: no penile erection response
- inhibition at 1 µM (MC4-R [1]): 99%
- decrease in body weight [2]: 1%
- decrease in food intake [2]: 2%
- inhibition at 1 µM (MC3-R): 51%
- Efficacy/Intrinsic Activity (MC4-R [3]): None
- functional status at MC4-R in cAMP assay (MC4-R [4]): no intrinsic activity (intrinsic activity below 0.1 (10%) is classified as inactive or having no intrinsic activity)
- Efficacy/Intrinsic Activity (MC4-R [5]; [7]): None
- inhibition at 1 µM (MC1-R): 35%

Compound: (E)-N—[(R)-2-[(S)-2-(4-Amino-butyl)-4-(2-naphthalen-2-yl-ethyl)-3-oxo-piperazin-1-yl]-1-(2,4-dichloro-benzyl)-2-oxo-ethyl]-3-phenyl-acrylamide [Example 20]
- Ki (MC5-R): 398 nM
- Penile Erection IV [6]: No
- penile erection response [6]: no penile erection response
- Ki (MC4-R [1]): 6 nM
- decrease in body weight [2]: 3%
- decrease in food intake [2]: 4%
- Ki (MC3-R; read-out: Ki (nM) (NDP-α-MSH) In Normal System, MC3-R): 648 nM
- Efficacy/Intrinsic Activity (MC4-R [3]): None
- EC50 (MC4-R [4]; normal receptor density system): 112 nM
- intrinsic activity at MC4-R in a normal system (MC4-R [4]; normal receptor density system): 0.2
- functional status at MC4-R in cAMP assay (MC4-R [4]): partial agonist (intrinsic activity between 0.1 (10%) and 0.7 (70%) is classified as a partial agonist)
- EC50 (MC4-R [5]; [7]): 215 nM
- Efficacy/Intrinsic Activity (MC4-R [5]; [7]): 0.38
- Ki (MC1-R): 502 nM
